Data from patent publication US20220370416A1, “COMPOUNDS AND METHODS FOR TARGETED DEGRADATION OF KRAS” (Arvinas Operations, Inc., priority 2020, published 2022).

What was measured:
HiBit-KRAS^G12C [1] = biological target: T1, HiBit-KRAS^G12C (Homo sapiens, UniProt P01116, G12C); experiment: HiBit degradation assay in MiaPaCa-2 HiBit-KRas^G12C cells; type: cell-based; details: 24 hours; for DC50: read-out: KRas^G12C-HiBiT (MiaPaCa; 0.5% DMSO) IC50; for Dmax / KRas^G12C-HiBiT (MiaPaCa; 0.5% DMSO) DMax: maximum degradation
T1 sequence (P01116 1-186 isoform P01116-2 G12C limits assumed): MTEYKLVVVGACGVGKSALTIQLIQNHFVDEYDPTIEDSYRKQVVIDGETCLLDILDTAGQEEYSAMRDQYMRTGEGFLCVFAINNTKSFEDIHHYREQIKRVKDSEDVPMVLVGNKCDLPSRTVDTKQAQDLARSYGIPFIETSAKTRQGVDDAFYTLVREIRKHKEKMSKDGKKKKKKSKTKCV
Outline: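 DC50 and Dmax come from 4-parameter fits of DMSO-normalized HiBit luminescence after 24 hours' exposure at 37° C to 10 μM–20 nM compound in 0.1% or 0.5% DMSO. Cells: MiaPaCa-2 carrying one endogenously HiBit-tagged KRAS^G12C allele; concentrations causing ≥50% […] viability loss (alamar blue) excluded.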

HiBit-KRAS^G12C [2] = biological target: T1, HiBit-KRAS^G12C; experiment: HiBit degradation assay in SW1573 HiBit-KRas^G12C cells; type: cell-based; set-up: expressed in transfected cells; host or cells: SW1573 (clone E6), modified pcDNA3.1 vector, TK promoter; details: 24 hours
Outline: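 HiBit-KRAS G12C degradation was measured after a 24 h compound exposure (titrated 10 μM–20 nM) in engineered SW1573 cells. Lytic HiBit luminescence, expressed relative to DMSO controls, yielded DC50 and Dmax from 4-parameter fits. Concentrations causing ≥50% loss in alamar blue viability were omitted as cytotoxic.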

[3] = MiaPaCa-2 HiBit-KRas^G12C cells, 0.5% DMSO
[4] = read-out: KRas^G12C-HiBiT (SW1573; 0.5% DMSO) IC50***, SW1573 HiBit-KRas^G12C, 0.5% DMSO
[5] = SW1573 HiBit-KRas^G12C, 0.5% DMSO
[6] = MIA PaCa-2, MiaPaCa-2 HiBit-KRas^G12C cells, 0.5% DMSO, read-out: KRas^G12C-HiBiT (MiaPaCa; 0.5% DMSO) DMax
[7] = SW1573, SW1573 HiBit-KRas^G12C, 0.5% DMSO, read-out: KRas^G12C-HiBiT (SW1573; 0.5% DMSO) Dmax**

Row | Compound | DC50 (HiBit-KRAS^G12C [1]; [3]) | DC50 (HiBit-KRAS^G12C [2]; [4]) | further results
1 | C=CC(=O)N1CCN(c2nc(OCCN3CCC(C)(COc4cc([C@@H](C(=O)N5C[C@H](O)C[C@H]5C(=O)N[C@@H](C)c5ccc(-c6scnc6C)cc5)C(C)C)on4)CC3)nc3c(F)c(-c4cc(O)cc5ccccc45)c(Cl)cc23)C[C@@H]1CC#N [Compound 132, (2S,4R)-1-[(2S)-2-[3-({1-[2-({6-chloro-4-[(3S)-3-(cyanomethyl)-4-(prop-2-enoyl)piperazin-1-yl]-8-fluoro-7-(3-hydroxynaphthalen-1-yl)quinazolin-2-yl}oxy)ethyl]-4-methylpiperidin-4-yl}methoxy)-1,2-oxazol-5-yl]-3-methylbutanoyl]-4-hydroxy-N-[(1S)-1-[4-(4-methyl-1,3-thiazol-5-yl)phenyl]ethyl]pyrrolidine-2-carboxamide] | > 1000 nM | > 1000 nM | 
2 | C=C(F)C(=O)N1CCN(c2nc(OCCN3CCC(COCC(=O)N[C@H](C(=O)N4C[C@H](O)C[C@H]4C(=O)N[C@@H](C)c4ccc(-c5scnc5C)cc4)C(C)(C)C)CC3)nc3c(F)c(-c4cc(O)cc5ccccc45)c(Cl)cc23)C[C@@H]1CC#N [Compound 15, (2S,4R)-1-[(2S)-2-[2-({1-[2-({6-chloro-4-[(3S)-3-(cyanomethyl)-4-(2-fluoroprop-2-enoyl)piperazin-1-yl]-8-fluoro-7-(3-hydroxynaphthalen-1-yl)quinazolin-2-yl}oxy)ethyl]piperidin-4-yl}methoxy)acetamido]-3,3-dimethylbutanoyl]-4-hydroxy-N-[(1S)-1-[4-(4-methyl-1,3-thiazol-5-yl)phenyl]ethyl]pyrrolidine-2-carboxamide] |  |  | Dmax (HiBit-KRAS^G12C [1]; MIA PaCa-2, read-out: KRas^G12C-HiBiT (MiaPaCa; 0.1% DMSO) DMax, MiaPaCa-2 HiBit-KRas^G12C cells, 0.1% DMSO): 35 to 70%; Dmax (HiBit-KRAS^G12C [2]; SW1573, read-out: KRas^G12C-HiBit (SW1573; 0.1% DMSO) Dmax**, SW1573 HiBit-KRas^G12C, 0.1% DMSO): > 70%; DC50 (HiBit-KRAS^G12C [2]; SW1573 HiBit-KRas^G12C, 0.1% DMSO, read-out: KRas^G12C-HIBit (SW1573; 0.1% DMSO) DC50*): 100 to 1000 nM
3 | C=CC(=O)N1CCN(c2nc(OCCN3CCC4(CC3)CN(c3cc([C@H](C(=O)N5C[C@H](O)C[C@H]5C(=O)N[C@@H](C)c5ccc(-c6scnc6C)cc5)C(C)C)on3)C4)nc3c(F)c(-c4cc(O)cc5ccccc45)c(Cl)cc23)C[C@@H]1CC#N (atropisomer, axis not shown) [Compound 107, (2S,4R)-1-[(2R)-2-(3-{7-[2-({6-chloro-4-[(3S)-3-(cyanomethyl)-4-(prop-2-enoyl)piperazin-1-yl]-8-fluoro-7-(3-hydroxynaphthalen-1-yl)quinazolin-2-yl}oxy)ethyl]-2,7-diazaspiro[3.5]nonan-2-yl}-1,2-oxazol-5-yl)-3-methylbutanoyl]-4-hydroxy-N-[(1S)-1-[4-(4-methyl-1,3-thiazol-5-yl)phenyl]ethyl]pyrrolidine-2-carboxamide] | < 100 nM | < 100 nM | KRas^G12C-HiBiT (MiaPaCa; 0.5% DMSO) DMax (HiBit-KRAS^G12C [1]; [3]): B (35 < B < 70); KRas^G12C-HiBiT (SW1573; 0.5% DMSO) Dmax** (HiBit-KRAS^G12C [2]; [5]): B (35 < B < 70)
4 | C=CC(=O)N1CCN(c2nc(OCCN3CCC(COCC(=O)N[C@H](C(=O)N4C[C@H](O)C[C@H]4C(=O)N[C@@H](C)c4ccc(-c5scnc5C)cc4)C(C)(C)C)CC3)nc3c(F)c(-c4cc(O)cc5ccccc45)c(Cl)cc23)C[C@@H]1CC#N (atropisomer, axis not shown) [Compound 163, (2S,4R)-1-[(2S)-2-[2-({1-[2-({6-chloro-4-[(3S)-3-(cyanomethyl)-4-(prop-2-enoyl)piperazin-1-yl]-8-fluoro-7-(3-hydroxynaphthalen-1-yl)quinazolin-2-yl}oxy)ethyl]piperidin-4-yl}methoxy)acetamido]-3,3-dimethylbutanoyl]-4-hydroxy-N-[(1S)-1-[4-(4-methyl-1,3-thiazol-5-yl)phenyl]ethyl]pyrrolidine-2-carboxamide] |  |  | KRas^G12C-HiBiT (MiaPaCa; 0.5% DMSO) DMax (HiBit-KRAS^G12C [1]; [3]): A (A ≥ 70); KRas^G12C-HiBiT (SW1573; 0.5% DMSO) Dmax** (HiBit-KRAS^G12C [2]; [5]): A (A ≥ 70)
5 | C=CC(=O)N1CCN(c2nc(OCCN3CCC(COc4cc([C@H](C(=O)N5C[C@H](O)C[C@H]5C(=O)N[C@@H](C)c5ccc(-c6ccnn6C)cc5)C(C)C)on4)CC3)nc3c(F)c(-c4cc(O)cc5ccccc45)c(Cl)cc23)C[C@@H]1CC#N (atropisomer, axis not shown) [Compound 138, (2S,4R)-1-[(2R)-2-[3-({1-[2-({6-chloro-4-[(3S)-3-(cyanomethyl)-4-(prop-2-enoyl)piperazin-1-yl]-8-fluoro-7-(3-hydroxynaphthalen-1-yl)quinazolin-2-yl}oxy)ethyl]-piperidin-4-yl}methoxy)-1,2-oxazol-5-yl]-3-methylbutanoyl]-4-hydroxy-N-[(1S)-1-[4-(1-methyl-1H-pyrazol-5-yl)phenyl]ethyl]pyrrolidine-2-carboxamide] | 100 to 1000 nM | < 100 nM | Dmax (HiBit-KRAS^G12C [1]; [6]): > 70%; Dmax (HiBit-KRAS^G12C [2]; [7]): > 70%
6 | C=CC(=O)N1CCN(c2nc(OCCN3CCC(COC4(C(=O)N[C@H](C(=O)N5C[C@H](O)C[C@H]5C(=O)N[C@@H](C)c5ccc(-c6scnc6C)cc5)C(C)(C)C)CC4)CC3)nc3c(F)c(-c4cc(O)cc5ccccc45)c(Cl)cc23)C[C@@H]1CC#N [Compound 96, (2S,4R)-1-[(2S)-2-{[1-({1-[2-({6-chloro-4-[(3S)-3-(cyanomethyl)-4-(prop-2-enoyl)piperazin-1-yl]-8-fluoro-7-(3-hydroxynaphthalen-1-yl)quinazolin-2-yl}oxy)ethyl]piperidin-4-yl}methoxy)cyclopropyl] formamido}-3,3-dimethylbutanoyl]-4-hydroxy-N-[(1S)-1-[4-(4-methyl-1,3-thiazol-5-yl)phenyl]ethyl]pyrrolidine-2-carboxamide] | 100 to 1000 nM | < 100 nM | Dmax (HiBit-KRAS^G12C [1]; [6]): > 70%; Dmax (HiBit-KRAS^G12C [2]; [7]): > 70%
7 | C=C(F)C(=O)N1CCN(c2nc(OCCN3CCC(C)(COc4cc([C@@H](C(=O)N5C[C@H](O)C[C@H]5C(=O)N[C@@H](C)c5ccc(-c6ccnn6C)cc5)C(C)C)on4)CC3)nc3c(F)c(-c4cc(O)cc5ccccc45)c(Cl)cc23)C[C@@H]1CC#N (atropisomer, axis not shown) [Compound 125, (2S,4R)-1-[(2S)-2-[3-({1-[2-({6-chloro-4-[(3S)-3-(cyanomethyl)-4-(2-fluoroprop-2-enoyl)piperazin-1-yl]-8-fluoro-7-(3-hydroxynaphthalen-1-yl)quinazolin-2-yl}oxy)ethyl]-4-methylpiperidin-4-yl}methoxy)-1,2-oxazol-5-yl]-3-methylbutanoyl]-4-hydroxy-N-[(1S)-1-[4-(1-methyl-1H-pyrazol-5-yl)phenyl]ethyl]pyrrolidine-2-carboxamide] | > 1000 nM | 100 to 1000 nM | 
8 | C=CC(=O)N1CCN(c2nc(OCCN3CCC(COc4cc([C@H](C(=O)N5C[C@H](O)C[C@H]5C(=O)N[C@@H](C)c5ccc(-c6ccnn6C)cc5)C(C)C)on4)CC3)nc3c(F)c(-c4cc(O)cc5ccccc45)c(Cl)cc23)C[C@@H]1CC#N [Compound 157, (2S,4R)-1-[(2R)-2-[3-({1-[2-({6-chloro-4-[(3S)-3-(cyanomethyl)-4-(prop-2-enoyl)piperazin-1-yl]-8-fluoro-7-(3-hydroxynaphthalen-1-yl)quinazolin-2-yl}oxy)ethyl]piperidin-4-yl}methoxy)-1,2-oxazol-5-yl]-3-methylbutanoyl]-4-hydroxy-N-[(1S)-1-[4-(1-methyl-1H-pyrazol-5-yl)phenyl]ethyl]pyrrolidine-2-carboxamide] | 100 to 1000 nM | < 100 nM | 
9 | C=CC(=O)N1CCN(c2nc(OCCN3CCC4(CC3)CN(CC(=O)N[C@H](C(=O)N3C[C@H](O)C[C@H]3C(=O)N[C@@H](C)c3ccc(-c5scnc5C)cc3)C(C)(C)C)C4)nc3c(F)c(-c4cc(O)cc5ccccc45)c(Cl)cc23)C[C@@H]1CC#N [Compound 145, (2S,4R)-1-[(2S)-2-(2-{7-[2-({6-chloro-4-[(3S)-3-(cyanomethyl)-4-(prop-2-enoyl)piperazin-1-yl)-8-fluoro-7-(3-hydroxynaphthalen-1-yl)quinazolin-2-yl}oxy)ethyl]-2,7-diazaspiro[3.5]nonan-2-yl}acetamido)-3,3-dimethylbutanoyl]-4-hydroxy-N-[(1S)-1-[4-(4-methyl-1,3-thiazol-5-yl)phenyl]ethyl]pyrrolidine-2-carboxamide] | 100 to 1000 nM | 100 to 1000 nM | Dmax (HiBit-KRAS^G12C [1]; MIA PaCa-2, read-out: KRas^G12C-HiBiT (MiaPaCa; 0.5% DMSO) DMax, MiaPaCa-2 HiBit-KRas^G12C cells, 0.5% DMSO): 35 to 70%; Dmax (HiBit-KRAS^G12C [2]; SW1573, read-out: KRas^G12C-HiBiT (SW1573; 0.5% DMSO) Dmax**, SW1573 HiBit-KRas^G12C, 0.5% DMSO): > 70%
